Assay results as given in BindingDB's records for doi:10.1016/j.chembiol.2016.06.016 (Massachusetts Institute of Technology, 2016).

How the values were obtained:
[1] = target: T1, Cytochrome b (Candida albicans, UniProt I2BJW5); experiment: Cytochrome b Enzyme Assay; conditions: pH 7.4; 25 °C
T1 sequence (I2BJW5 whole entry): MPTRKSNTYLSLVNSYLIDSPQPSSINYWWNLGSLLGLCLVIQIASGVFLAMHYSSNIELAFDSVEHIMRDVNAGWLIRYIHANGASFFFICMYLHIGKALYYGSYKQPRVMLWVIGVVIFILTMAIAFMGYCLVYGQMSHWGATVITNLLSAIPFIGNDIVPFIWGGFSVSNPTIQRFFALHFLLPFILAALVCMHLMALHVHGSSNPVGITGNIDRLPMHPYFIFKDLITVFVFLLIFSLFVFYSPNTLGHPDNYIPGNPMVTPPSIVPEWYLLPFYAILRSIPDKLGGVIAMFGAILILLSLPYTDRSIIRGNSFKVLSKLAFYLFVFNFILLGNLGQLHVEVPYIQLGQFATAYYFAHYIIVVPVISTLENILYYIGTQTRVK
Method: (§1) Reaction plates were incubated at room temperature for 10 min before reading absorbance at 550 nm. Absolute IC50 values were calculated in GraphPad Prism 6.0.

[2] = target: Cytochrome b (Homo sapiens, UniProt P00156); experiment: Cytochrome b Enzyme Assay; conditions: pH 7.4; 25 °C
Sequence of Cytochrome b (Homo sapiens, UniProt P00156) (P00156 whole entry): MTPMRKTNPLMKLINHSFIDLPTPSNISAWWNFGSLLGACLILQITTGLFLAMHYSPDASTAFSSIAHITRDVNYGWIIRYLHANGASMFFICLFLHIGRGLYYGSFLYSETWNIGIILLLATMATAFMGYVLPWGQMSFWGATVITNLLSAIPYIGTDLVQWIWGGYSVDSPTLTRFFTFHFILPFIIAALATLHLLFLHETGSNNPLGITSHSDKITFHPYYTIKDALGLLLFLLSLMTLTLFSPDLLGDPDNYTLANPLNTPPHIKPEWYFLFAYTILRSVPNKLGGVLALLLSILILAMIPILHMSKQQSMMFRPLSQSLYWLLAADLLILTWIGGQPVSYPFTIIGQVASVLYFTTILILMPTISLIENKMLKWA
Method: as §1

SMILES | IC50 [1] [µM] | IC50 [2] [µM]
COC(=O)Cn1nc(-c2cccc(O)c2)c2ccccc21 [Inz-41] | 44.1 | > 64
c1ccc(-c2nn(Cc3ncon3)c3ccccc23)cc1 [Inz-78] | 14.8 | > 64
Cc1cc(Cn2nc(-c3ccccc3)c3ccccc32)on1 [Inz-31] | > 64 | > 64
N#Cc1ncccc1Cn1nc(-c2ccccc2)c2ccccc21 [Inz-91] | > 64 | > 64
COC(=O)Cn1nc(-c2cc(OCc3ccccc3)ccc2F)c2ccccc21 [Inz-68] | 0.0352 | 1.66
COC(=O)Cn1c(C)c(-c2cccc(OCc3ccccc3)c2)c2ccccc21 [Inz-56] | > 64 | > 64
COc1cccc2c(-c3cc(C(F)(F)F)ccc3F)nn(Cc3cnccn3)c12 [Inz-95] | 0.437 | 15.2
COC(=O)Cn1nc(-c2ccc(F)cc2F)c2ccccc21 [Inz-71] | 16.6 | > 64
Cn1nnc(Cn2nc(-c3cc(C(F)(F)F)ccc3F)c3ccccc32)n1 [Inz-83] | 1.22 | > 64
COC(=O)Cn1nc(-c2cccc([N+](=O)[O-])c2)c2ccccc21 [Inz-12] | 6.07 | > 64
COC(=O)Cn1nc(-c2c(C)cccc2C)c2ccccc21 [Inz-58] | > 64 | > 64
COC(=O)Cn1nc(-c2ccccc2OC)c2ccccc21 [Inz-16] | 22.9 | > 64
CCN(CC)CCOc1cccc(-c2nn(CC(=O)OC)c3ccccc23)c1 [Inz-65] | 13.8 | > 64
COC(=O)Cn1nc(-c2cccc(OCCC34CC5CC(CC(C5)C3)C4)c2)c2ccccc21 [Inz-75] | 1.14 | 1.08
COC(=O)Cn1nc(-c2cc(C(F)(F)F)ccc2F)c2cc(C(F)(F)F)ccc21 [Inz-21] | > 64 | > 64
COC(=O)CNc1ccccc1Oc1ccccc1 [Inz-86] | > 64 | > 64
COC(=O)Cn1nc(-c2cccc(OCCC(C)(C)C)c2)c2ccccc21 [Inz-74] | 0.657 | 4.72
COC(=O)Cn1nc(-c2cccc(OCCC(C)C)c2)c2ccccc21 [Inz-57] | 0.156 | 4.77
COC(=O)Cn1cc(-c2cccc(OCc3ccccc3)c2)c2ccccc21 [Inz-50] | 13.1 | > 64
Cn1nnc(Cn2nc(-c3cc(OCCCC4CCCCC4)ccc3F)c3ccccc32)n1 [Inz-82] | 0.614 | 12.3

SMILES | IC50 [1] [µM] | IC50 [2] [µM]
COC(=O)Cn1nc(-c2ccccn2)c2ccccc21 [Inz-15] | 62.4 | > 64
c1ccc(-c2nn(Cc3nnco3)c3ccccc23)cc1 [Inz-72] | 17.9 | > 64
COC(=O)Cn1nc(-c2ccncc2)c2ccccc21 [Inz-92] | > 64 | > 64
COC(=O)Cn1nc(-c2cc(C(F)(F)F)ccc2F)c2c(C(F)(F)F)cccc21 [Inz-22] | 46.8 | > 64
c1ccc(-c2nn(Cc3c[nH]nn3)c3ccccc23)cc1 [Inz-79] | > 64 | > 64
COC(=O)Cn1nc(-c2cccc(OCc3ccccc3)c2F)c2ccccc21 [Inz-69] | 3.27 | > 64
COC(=O)Cn1nc(-c2cc(C(F)(F)F)ccc2F)c2c(C)cccc21 [Inz-23] | 10.8 | > 64
c1ccc(-c2nn(Cc3nccs3)c3ccccc23)cc1 [Inz-30] | > 64 | > 64
COC(=O)Cn1nc(-c2cc(C(F)(F)F)ccc2F)c2cccc(C)c21 [Inz-4] | 0.026 | 1.04
FC(F)Cn1nc(-c2ccccc2)c2ccccc21 [Inz-89] | > 64 | > 64
CS(=O)(=O)N(c1ccc2c(-c3cc(C(F)(F)F)ccc3F)nn(Cc3cnccn3)c2c1)S(C)(=O)=O [Inz-102] | > 64 | > 64
Cc1cccc2c(-c3cc(OCCCC4CCCCC4)ccc3F)nn(Cc3nnn(C)n3)c12 [Inz-84] | 0.154 | 2.92
c1ccc(-c2nn(Cc3ccccn3)c3ccccc23)cc1 [Inz-85] | > 64 | > 64
CCOc1cccc(-c2nn(CC(=O)OC)c3ccccc23)c1 [Inz-40] | 0.981 | 28.1
COC(=O)Cn1nc(-c2ccccc2)c2cccc(C)c21 [Inz-3] | 1.01 | 21.3
CN(O)C(=O)Cn1nc(-c2ccccc2)c2ccccc21 [Inz-87] | > 64 | > 64
CNC(=O)Cn1nc(-c2ccccc2)c2ccccc21 [Inz-25] | > 64 | > 64
c1ccc(-c2nn(Cc3nn[nH]n3)c3ccccc23)cc1 [Inz-33] | > 64 | > 64
Fc1ccc(C(F)(F)F)cc1-c1nn(Cc2cnccn2)c2ncccc12 [Inz-97] | 0.935 | 54.4
COC(=O)Cn1nc(-c2cccc(OCC(C)C)c2)c2ccccc21 [Inz-54] | 0.344 | 9.23

SMILES | IC50 [1] [µM] | IC50 [2] [µM]
Cc1nc(Cn2nc(-c3ccccc3)c3ccccc32)no1 [Inz-77] | > 64 | > 64
Fc1ccc(C(F)(F)F)cc1-c1nn(Cc2cnccn2)c2ccccc12 [Inz-94] | 0.449 | 35.1
COC(=O)Cn1nc(-c2cccc(F)c2F)c2ccccc21 [Inz-60] | 1.43 | > 64
CON(C)C(=O)Cn1nc(-c2ccccc2)c2ccccc21 [Inz-26] | > 64 | > 64
COC(=O)Cn1nc(-c2ccccc2C(F)(F)F)c2ccccc21 [Inz-51] | 50.5 | > 64
Cc1cccc2c(-c3cc(C(F)(F)F)ccc3F)nn(Cc3cnccn3)c12 [Inz-38] | 0.602 | > 64
N#Cc1cccc2c(-c3cc(C(F)(F)F)ccc3F)nn(Cc3cnccn3)c12 [Inz-96] | 22.7 | > 64
Cn1cc(Cn2nc(-c3ccccc3)c3ccccc32)nn1 [Inz-35] | > 64 | > 64
COC(=O)Cn1nc(-c2ccsc2)c2ccccc21 [Inz-13] | 9.23 | > 64
COC(=O)Cn1nc(-c2c(F)cccc2F)c2ccccc21 [Inz-59] | 2.36 | > 64
Fc1ccc(C(F)(F)F)cc1-c1nn(Cc2cnccn2)c2c(F)cccc12 [Inz-39] | 0.141 | 10.8
c1ccc(-c2nn(Cc3cncs3)c3ccccc23)cc1 [Inz-29] | > 64 | > 64
COC(=O)Cn1nc(-c2cccs2)c2ccccc21 [Inz-73] | 15.1 | > 64
COC(=O)Cn1nc(-c2ccccc2Cl)c2ccccc21 [Inz-18] | 5.41 | > 64
COC(=O)Cn1ncc2ccccc21 [Inz-49] | > 64 | > 64
O=C(O)Cn1nc(-c2ccccc2)c2ccccc21 [Inz-24] | > 64 | > 64
COC(=O)Cn1nc(-c2ccccc2F)c2ccccc21 [Inz-19] | 2.97 | 36
Fc1ccc(C(F)(F)F)cc1-c1nn(Cc2cnccn2)c2ccncc12 [Inz-98] | 20.4 | > 64
